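Protocol summary: plate cells (96-well), add compound at 5 concentrations, incubate 48 h, interpolate endpoints linearly. GI50 marks 50% less growth. Definition used: TGI = concentration required for complete inhibition of growth.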
How the values were obtained:
Test in all cases: growth of human tumour cells (NCI), 48 h
[1] = test system: 786-0 renal
[2] = test system: A498 renal
[3] = test system: ACHN renal
[4] = test system: CAKI-1 renal
[5] = test system: CCRF-CEM leukemia
[6] = test system: COLO 205 colon
[7] = test system: EKVX NSCLC
[8] = test system: HCC-2998 colon
[9] = test system: HCT-116 colon
[10] = test system: HCT-15 colon
[11] = test system: HL-60(TB) leukemia
[12] = test system: HS 578T breast
[13] = test system: K-562 leukemia
[14] = test system: KM12 colon
[15] = test system: M14 melanoma
[16] = test system: MALME-3M melanoma
[17] = test system: MCF7 breast
[18] = test system: MDA-MB-468 breast
[19] = test system: NCI-H23 lung
[20] = test system: OVCAR-3 ovarian
[21] = test system: OVCAR-4 ovarian
[22] = test system: OVCAR-5 ovarian
[23] = test system: PC-3 prostate
[24] = test system: RPMI-8226 leukemia
[25] = test system: RXF 393 renal
[26] = test system: SF-268 CNS
[27] = test system: SF-295 CNS
[28] = test system: SF-539 CNS
[29] = test system: SK-MEL-2 melanoma
[30] = test system: SK-MEL-28 melanoma
[31] = test system: SK-MEL-5 melanoma
[32] = test system: SK-OV-3 ovarian
[33] = test system: SN12C renal
[34] = test system: SNB-19 CNS
[35] = test system: SR leukemia
[36] = test system: TK-10 renal
[37] = test system: UACC-257 melanoma
[38] = test system: UACC-62 melanoma
[39] = test system: UO-31 renal

SMILES: Cn1cc(-c2cc(N)n3nc(-c4c[nH]c5ccc(Cl)cc45)cc3n2)c2cccnc21
- GI50 [1]: 1.56 µM
- TGI [1]: 2.91 µM
- GI50 [2]: 20.1 µM
- TGI [2]: 37.7 µM
- GI50 [3]: 1.72 µM
- TGI [3]: 3.17 µM
- GI50 [4]: 1.64 µM
- TGI [4]: 3.5 µM
- GI50 [5]: 2.51 µM
- TGI [5]: 9.05 µM
- GI50 [6]: 1.75 µM
- TGI [6]: 3.27 µM
- GI50 [7]: 1.85 µM
- TGI [7]: 4.53 µM
- GI50 [8]: 1.76 µM
- TGI [8]: 3.2 µM
- GI50 [9]: 1.81 µM
- TGI [9]: 3.29 µM
- GI50 [10]: 1.79 µM
- TGI [10]: 3.94 µM
- GI50 [11]: 1.8 µM
- TGI [11]: 5.47 µM
- GI50 [12]: 1.97 µM
- TGI [12]: 5.08 µM
- GI50 [13]: 2.76 µM
- TGI [13]: > 100 µM
- GI50 [14]: 2.03 µM
- TGI [14]: 4.18 µM
- GI50 [15]: 1.81 µM
- TGI [15]: 3.42 µM
- GI50 [16]: 1.62 µM
- TGI [16]: 3.04 µM
- GI50 [17]: 1.77 µM
- TGI [17]: 3.93 µM
- GI50 [18]: 1.56 µM
- TGI [18]: 3.25 µM
- GI50 [19]: 1.71 µM
- TGI [19]: 3.39 µM
- GI50 [20]: 1.68 µM
- TGI [20]: 3.27 µM
- GI50 [21]: 1.79 µM
- TGI [21]: 3.76 µM
- GI50 [22]: 1.73 µM
- TGI [22]: 3.62 µM
- GI50 [23]: 2.54 µM
- TGI [23]: 8.68 µM
- GI50 [24]: 2.6 µM
- TGI [24]: > 100 µM
- GI50 [25]: 1.49 µM
- TGI [25]: 2.9 µM
- GI50 [26]: 2.06 µM
- TGI [26]: 4.82 µM
- GI50 [27]: 1.65 µM
- TGI [27]: 3.13 µM
- GI50 [28]: 1.62 µM
- TGI [28]: 3.01 µM
- GI50 [29]: 12.3 µM
- TGI [29]: 24.7 µM
- GI50 [30]: 1.53 µM
- TGI [30]: 2.9 µM
- GI50 [31]: 1.65 µM
- TGI [31]: 3.06 µM
- GI50 [32]: 2.03 µM
- TGI [32]: 4.76 µM
- GI50 [33]: 1.52 µM
- TGI [33]: 3.13 µM
- GI50 [34]: 2.6 µM
- TGI [34]: 6.74 µM
- GI50 [35]: 2.3 µM
- TGI [35]: > 100 µM
- GI50 [36]: 2.02 µM
- TGI [36]: 4.64 µM
- GI50 [37]: 1.9 µM
- TGI [37]: 3.87 µM
- GI50 [38]: 1.63 µM
- TGI [38]: 3.07 µM
- GI50 [39]: 1.55 µM
- TGI [39]: 3.05 µM

From PubChem BioAssay (NCI)
